Test results: patent US11993574B2, “Pyrazole and imidazole compounds for inhibition of IL-17 and RORgamma” (REATA PHARMACEUTICALS, INC., priority 2018, dated 2024)

Key:
Type in all cases: cell-based
[1] = tested on: IL-17A; assay: IL-17 release from differentiated primary human T-cells (IL-17A HTRF assay); conditions: primary human CD4+ T cells differentiated into Th17 cells, 45-hour incubation, IL-17A in supernatant; read-out: hIL17 IC50
Procedure: C. IL-17 Release from Differentiated Primary Human T-Cells and Cell Viability
Primary human cryopreserved CD4+ T Cells (Lonza) were thawed according to the manufacturer's recommendations and plated either in Lymphocyte Growth Medium-3 (LGM-3) or X-VIVO 20 media (Lonza) in 96-well tissue culture plates at a density of ˜2×10^5 cells per well, and allowed to recover for approximately 4 hours at 37° C. with 5% CO2 in a humidified atmosphere. After the recovery step, DMSO (vehicle) or test compound at doses ranging from 2 to 500 nM or 4 to 1000 nM in a three-fold dilution series was added to the cells. Three replicate wells were tested for each treatment condition. Final DMSO concentration in each well was 0.1%. Immediately after treatment, CD4+ T cells were activated by adding Dynabeads Human T-Activator CD3/CD28 (Life Technologies; bead-to-cell ratio of 1:2.5) and differentiated into Th17 cells by adding a mixture of the following cytokines: transforming growth factor-β (TGF-β, 5 ng/mL), IL-6 (20 ng/mL), IL-23 (20 ng/mL), and IL-1β (10 ng/mL). Undifferentiated control cells received only cytokine IL-2 (50 ng/mL). All human recombinant cytokines were purchased from R&D Systems. Following a 45-hour incubation at 37° C. with 5% CO2 in a humidified atmosphere, the plates were centrifuged for 3 minutes at 250×g, and half of the supernatant was transferred to anew plate to be used in the IL-17A assay (see below). Cell viability was assessed in the original plate using the CyQuant Direct Assay (Life Technologies). CyQuant reagent (an amount equal to 10% of remaining media volume) was added to the wells, and the plates were then incubated at 37° C. for 75 min. Fluorescence was read on a SpectraMax M2e spectrophotometer at 480 nm (excitation) and 535 nm (emission) wavelengths. CyQuant values from test compound samples were normalized to those from DMSO-treated samples. The concentration of IL-17A in the supernatant was measured using the Homogeneous Time-Resolved Fluorescence (HTRF) assay (Cisbio Bioassays) according to the manufacturer's protocol. The assay was performed at room temperature in low volume, solid white 384-well plates (Greiner Bio-One). Samples and standards (serially-diluted human recombinant IL-17A (0 to 5,000 pg/mL concentration range; Cisbio Bioassays) were incubated with the anti-human IL-17A antibody conjugates (the HTRF donor and acceptor pair) for 16 hours and fluorescence was measured using a Pherastar FS microplate reader (BMG Labtech) in the HTRF mode (excitation at 337 nm and emission at 665 nm and 620 nm). IL-17A levels were assessed in duplicate aliquots of supernatant from each well resulting in a total of six readings per test condition. The 665 nm/620 nm signal ratio was calculated and the concentration of IL-17A in each sample was determined by interpolation from the standard curve. The amount of IL-17A from test compound treated samples were normalized to that of the vehicle-treated samples, set to 100%. Data were analyzed using GraphPad Prism (GraphPad Software, La Jolla California USA). Concentrations of test compound were transformed by taking the logarithm of each concentration used. The IC50 values for compound-mediated reduction in IL-17A levels and cell viability were determined by non-linear regression analysis using the log(inhibitor) vs. normalized response with variable slope equation. Inhibition that is closely correlated with reduced viability is considered to be non-specific.

[2] = target: T1, Human RAR-related Orphan Receptor Gamma (RORγ) (Homo sapiens, UniProt P51449); assay: RORγ assay (GAL4-RORγ hybrid luciferase reporter, Indigo Biosciences); conditions: inverse-agonist activity, GAL4-RORγ reporter cells, 23 hours
T1 sequence (P51449 269-508 limits assumed): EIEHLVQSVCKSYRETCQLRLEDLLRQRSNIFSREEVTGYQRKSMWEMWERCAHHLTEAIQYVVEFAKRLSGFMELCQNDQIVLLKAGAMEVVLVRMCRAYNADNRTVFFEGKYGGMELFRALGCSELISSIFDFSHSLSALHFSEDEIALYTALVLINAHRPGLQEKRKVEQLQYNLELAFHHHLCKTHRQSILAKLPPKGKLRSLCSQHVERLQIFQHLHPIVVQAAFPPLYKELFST
From the text: B. RORγ Assay and Cell Viability
The RORγ assay system was purchased from Indigo Biosciences. This nuclear receptor assay utilizes a human cell line that has been engineered to express a hybrid form of the Human RAR-related Orphan Receptor Gamma (RORγ) at high levels. The N-terminal DNA binding domain (DBD) of the native RORγ receptor was substituted with the yeast GAL4-DBD to generate the GAL4-RORγ hybrid nuclear receptor. The reporter cell line is transfected with a plasmid that encodes the beetle luciferase gene under the control of the GAL4 upstream activating sequence (UAS). GAL4 binds to the UAS and increases transcription of downstream target genes. The GAL4-RORγ hybrid is constitutively active; therefore, the principle application of this reporter assay system is to screen test compounds to quantify inverse-agonist activities against human RORγ. Because the ligand binding domain (LBD) of RORγ is identical to the LBD of RORγt, this assay is an accurate surrogate for evaluating activity of experimental ligands against RORγt. To assess the RORγ inverse-agonist activity of the test compounds, reporter cells were plated in white 96-well plates in triplicate and were treated with DMSO (vehicle) or test compound (concentration ranges of 7.8-2000 nM) at 37° C. with 5% CO2 in a humidified atmosphere for 23 hours. After this incubation, luciferin was added to the wells and luciferase activity was determined by measuring the luminescence signal using a BMG Pherastar microplate reader. Viability was determined using the Live Cell Multiplex Assay (Indigo Biosciences). Values from test compound samples were normalized to those from DMSO-treated samples. Data were analyzed using GraphPad Prism version 6.00 for Windows (GraphPad Software, La Jolla Calif. USA). A non-linear regression analysis with log (inhibitor) vs. normalized response using a variable slope was applied to fit the data and determine the IC50 values for inhibition of RORγ and cell viability. Inhibition that is closely correlated with reduced viability is considered to be non-specific.

[3] = tested on: Nrf2 transcription factor; assay: AREc32 luciferase reporter assay; conditions: Homo sapiens; AREc32 cells, 19 hours; concentration required to increase GST ARE luciferase reporter activity by 2-fold; read-out: NRF2 ARE 2-Fold (EC2×)
From the text: A. AREc32 Luciferase Reporter Assay
The AREc32 luciferase reporter assay allows for quantitative assessment of the endogenous activity of the Nrt2 transcription factor in cultured mammalian cells. AREc32 cells are derived from MCF-7 human breast carcinoma cells that were stably transfected with a reporter construct that contains the firefly luciferase gene located downstream of eight copies of the rat GSTA2 antioxidant response element (ARE) sequence (Wang et al., 2006; Concept Life Sciences Integrated Discovery and Development Services Ltd (CLSIDDS)). Active Nrf2 binds to the ARE sequences and increases expression of the firefly luciferase gene. To assess the Nrf2-activating potential of the test compounds, AREc32 cells were plated in black […] plates at a density of 20,000 cells per well in triplicate in DMEM+10% FBS+0.8 mg/mL Geneticin and incubated at 37° C. with 5% CO2 in a humidified atmosphere. The next day, cells were treated with DMSO (vehicle) or test compound (concentration ranges of 0.4-200 nM or 3.9-2000 nM) for 19 hours. Luciferase activity was determined using the ONE-Glo Luciferase assay (Promega). The luminescence signal was measured on a BMG Pherastar microplate reader. The mean luminescence value from test compound-treated wells was normalized to that from DMSO-treated wells and was represented as fold-induction. Data were analyzed using GraphPad Prism version 6.00 for Windows, GraphPad Software, La Jolla Calif. USA. A non-linear regression curve with log (agonist) vs. response using a variable slope was used to fit the data. Where applicable, a maximum threshold value of 50-fold over DMSO was set. EC2× values were interpolated from the curve. EC2× corresponds to the concentration of test compound required to increase GST ARE Luciferase reporter activity by 2-fold.

Row | SMILES | IC50 [1] [nM] | IC50 [2] [nM] | EC (2-fold) [3] [µM]
1 | C[C@H]1C(=O)C(C#N)=C[C@@]2(C)c3c(c(-c4ccncn4)nn3-c3ccc(-c4ccccc4)cc3)CC[C@H]12 [T48] | 30 | 45 | 0.187
2 | C[C@H]1C(=O)C(C#N)=C[C@@]2(C)c3c(c(-c4ccncn4)nn3-c3ccc(-c4ccnc(CF)c4)cc3)CC[C@H]12 [T54] | 33 | 52 | 0.355
3 | C[C@H]1C(=O)C(C#N)=C[C@@]2(C)c3c(c(-c4ccncn4)nn3-c3ccc(-c4ccnc(CO)c4)cc3)CC[C@H]12 [T55] | 149 | 174 | 0.609
4 | C[C@H]1C(=O)C(C#N)=C[C@@]2(C)c3c(c(-c4ccncn4)nn3-c3ccc(-c4cccc(F)c4)cn3)CC[C@H]12 [T58] | 43 | 128 | 0.355
5 | C[C@H]1C(=O)C(C#N)=C[C@@]2(C)c3c(c(-c4ccncn4)nn3-c3ccc(-c4ccccc4)cn3)CC[C@H]12 [T59] | 99 | 113 | 0.449
6 | C[C@H]1C(=O)C(C#N)=C[C@@]2(C)c3c(c(-c4ccncn4)nn3-c3ccc(-c4cccc(CO)c4)cn3)CC[C@H]12 [T60] | 141 | 101 | 0.44
7 | C[C@H]1C(=O)C(C#N)=C[C@@]2(C)c3c(c(-c4ccncn4)nn3-c3ccc(-c4ccccc4)nc3)CC[C@H]12 [T64] | 144 | 122 | 0.636
8 | C[C@H]1C(=O)C(C#N)=C[C@@]2(C)c3c(c(-c4ccccc4F)nn3-c3ccc(-c4ccccc4)cc3)CC[C@H]12 [T66] | 19 | 58 | 0.128
9 | Cc1ccc(-c2nn(-c3ccc(-c4ccccc4)cc3)c3c2CC[C@@H]2[C@@H](C)C(=O)C(C#N)=C[C@@]32C)cc1 [T69] | 12 | 142 | 0.38
10 | CC(C)c1cccc(-c2nn(-c3ccc(-c4ccccc4)cc3)c3c2CC[C@@H]2[C@@H](C)C(=O)C(C#N)=C[C@@]32C)c1 [T71] | 9 | 294 | 0.257

Further compounds by falling IC50 [1], results first:

Row | IC50 [1] [nM] | IC50 [2] [nM] | SMILES | EC (2-fold) [3] [µM]
11 | 326 | 115 | C[C@H]1C(=O)C(C#N)=C[C@@]2(C)c3c(c(-c4ccncn4)nn3-c3ccc(-c4cncnc4)cc3)CC[C@H]12 [T50] | 0.977
12 | 151 | 201 | C[C@H]1C(=O)C(C#N)=C[C@@]2(C)c3c(c(-c4ccncn4)nn3-c3ccc(C(F)(F)F)cn3)CC[C@H]12 [T63] | 0.725
13 | 115 | 136 | C[C@H]1C(=O)C(C#N)=C[C@@]2(C)c3c(c(-c4ccncn4)nn3-c3ccc(-c4cccc(CF)c4)cn3)CC[C@H]12 [T61] | 0.251
14 | 91 | 48 | C[C@H]1C(=O)C(C#N)=C[C@@]2(C)c3c(c(-c4ccncn4)nn3-c3ccc(-c4cccnc4)cc3)CC[C@H]12 [T51] | 0.501
15 | 88 | 57 | C[C@H]1C(=O)C(C#N)=C[C@@]2(C)c3c(c(-c4ccncn4)nn3-c3ccc(-c4cccnc4)cc3F)CC[C@H]12 [T53] | 0.489
16 | 67 | 96 | C[C@H]1C(=O)C(C#N)=C[C@@]2(C)c3c(c(-c4ccncn4)nn3-c3ccc(-c4cccnc4)cn3)CC[C@H]12 [T57] | 0.403
17 | 58 | 75 | C[C@H]1C(=O)C(C#N)=C[C@@]2(C)c3c(c(-c4cncnc4)nn3-c3ccc(-c4ccccc4)cc3)CC[C@H]12 [T70] | 0.472
18 | 55 | 99 | C[C@H]1C(=O)C(C#N)=C[C@@]2(C)c3c(c(-c4ccncn4)nn3-c3ccc(-c4ccc(F)cc4)cn3)CC[C@H]12 [T56] | 0.433
19 | 52 | 59 | C[C@H]1C(=O)C(C#N)=C[C@@]2(C)c3c(c(-c4ccncn4)nn3-c3ccc(-c4cncc(F)c4)cc3)CC[C@H]12 [T49] | 0.392
20 | 27 | 36 | C[C@H]1C(=O)C(C#N)=C[C@@]2(C)c3c(c(-c4cccnc4)nn3-c3ccc(-c4ccccc4)cc3)CC[C@H]12 [T68] | 0.248
21 | 26 | 68 | C[C@H]1C(=O)C(C#N)=C[C@@]2(C)c3c(c(-c4ccccc4)nn3-c3ccc(-c4ccc(N(C)C)cc4)cc3)CC[C@H]12 [T47] | 0.253
22 | 26 | 49 | C[C@H]1C(=O)C(C#N)=C[C@@]2(C)c3c(c(-c4ccncc4)nn3-c3ccc(-c4ccccc4)cc3)CC[C@H]12 [T67] | 0.269
23 | 12 | 77 | C[C@H]1C(=O)C(C#N)=C[C@@]2(C)c3c(c(-c4ccc(F)cc4)nn3-c3ccc(-c4ccccc4)cc3)CC[C@H]12 [T65] | 0.201
